Data taken from ChEMBL document CHEMBL1201862, “PubChem BioAssay data set” (2004).
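Assay format: 96-well plates, 48-hour exposure. The concentration for 50% growth inhibition is given as GI50.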 Active and inactive are the calls of the source. Cut-off read from the data, not from the text of the source: active = GI50 up to about 1.1 µM and inactive = higher.

How the values were obtained:
Assay in all cases: DTP human tumour cell line panel, 48 h
MDA-MB-435 = tested on: MDA-MB-435
SK-OV-3 = tested on: SK-OV-3
M14 = tested on: M14
UACC-62 = tested on: UACC-62
SNB-75 = tested on: SNB-75
SK-MEL-28 = tested on: SK-MEL-28
UO-31 = tested on: UO-31
NCI-H460 = tested on: NCI-H460
NCI-H522 = tested on: NCI-H522
SN12C = tested on: SN12C
BT-549 = tested on: BT-549
SF-539 = tested on: SF-539
SW-620 = tested on: SW-620
OVCAR-5 = tested on: OVCAR-5
MOLT-4 = tested on: MOLT-4
T47D = tested on: T47D
MDA-N = tested on: MDA-N
A549 = tested on: A549
786-0 = tested on: 786-0
COLO 205 = tested on: COLO 205
HCC 2998 = tested on: HCC 2998
DU-145 = tested on: DU-145
SK-MEL-5 = tested on: SK-MEL-5
LOX IMVI = tested on: LOX IMVI
MCF7 = tested on: MCF7
NCI-H23 = tested on: NCI-H23
MDA-MB-231 = tested on: MDA-MB-231
CCRF-CEM = tested on: CCRF-CEM
KM12 = tested on: KM12
HCT-15 = tested on: HCT-15
SNB-19 = tested on: SNB-19
HCT-116 = tested on: HCT-116
OVCAR-8 = tested on: OVCAR-8
SF-268 = tested on: SF-268
K562 = tested on: K562
OVCAR-3 = tested on: OVCAR-3
NCI/ADR-RES = tested on: NCI/ADR-RES
HOP-62 = tested on: HOP-62
SR = tested on: SR
OVCAR-4 = tested on: OVCAR-4
EKVX = tested on: EKVX
U-251 = tested on: U-251
HT-29 = tested on: HT-29
PC-3 = tested on: PC-3
UACC-257 = tested on: UACC-257
IGROV-1 = tested on: IGROV-1
HL-60 = tested on: HL-60
SF-295 = tested on: SF-295
A498 = tested on: A498
Hs-578T = tested on: Hs-578T
Malme-3M = tested on: Malme-3M
HOP-92 = tested on: HOP-92
ACHN = tested on: ACHN
CAKI-1 = tested on: CAKI-1
NCI-H226 = tested on: NCI-H226
RXF 393 = tested on: RXF 393
TK-10 = tested on: TK-10
SK-MEL-2 = tested on: SK-MEL-2
RPMI-8226 = tested on: RPMI-8226

## CSCCCN(CCCSC)CCCSC
MDA-MB-435
  GI50: 55.6 µM (inactive)
SK-OV-3
  GI50: > 100 µM (inactive)
M14
  GI50: > 100 µM (inactive)
UACC-62
  GI50: 97.5 µM (inactive)
SNB-75
  GI50: 48.5 µM (inactive)
SK-MEL-28
  GI50: > 100 µM (inactive)
UO-31
  GI50: > 100 µM (inactive)
NCI-H460
  GI50: > 100 µM (inactive)
NCI-H522
  GI50: 66.7 µM (inactive)
SN12C
  GI50: > 100 µM (inactive)
BT-549
  GI50: > 100 µM (inactive)
SF-539
  GI50: > 100 µM (inactive)
SW-620
  GI50: > 100 µM (inactive)
OVCAR-5
  GI50: > 100 µM (inactive)
MOLT-4
  GI50: 24.2 µM (inactive)
T47D
  GI50: > 100 µM (inactive)
MDA-N
  GI50: > 100 µM (inactive)
A549
  GI50: > 100 µM (inactive)
786-0
  GI50: > 100 µM (inactive)
COLO 205
  GI50: > 100 µM (inactive)
HCC 2998
  GI50: > 100 µM (inactive)
DU-145
  GI50: > 100 µM (inactive)
SK-MEL-5
  GI50: > 100 µM (inactive)
LOX IMVI
  GI50: > 100 µM (inactive)
MCF7
  GI50: > 100 µM (inactive)
NCI-H23
  GI50: > 100 µM (inactive)
MDA-MB-231
  GI50: > 100 µM (inactive)
CCRF-CEM
  GI50: 35.5 µM (inactive)
KM12
  GI50: > 100 µM (inactive)
HCT-15
  GI50: > 100 µM
SNB-19
  GI50: > 100 µM (inactive)
HCT-116
  GI50: > 100 µM (inactive)
OVCAR-8
  GI50: > 100 µM (inactive)
SF-268
  GI50: > 100 µM (inactive)
K562
  GI50: 97.5 µM (inactive)
OVCAR-3
  GI50: > 100 µM (inactive)
NCI/ADR-RES
  GI50: > 100 µM (inactive)
HOP-62
  GI50: > 100 µM (inactive)
SR
  GI50: 10.6 µM (inactive)
OVCAR-4
  GI50: > 100 µM (inactive)
EKVX
  GI50: > 100 µM (inactive)
U-251
  GI50: > 100 µM (inactive)
HT-29
  GI50: > 100 µM (inactive)
PC-3
  GI50: > 100 µM (inactive)
UACC-257
  GI50: > 100 µM (inactive)
IGROV-1
  GI50: > 100 µM (inactive)
HL-60
  GI50: 13.5 µM (inactive)
SF-295
  GI50: > 100 µM (inactive)

## COc1ccc(N(CN2C(=O)CCC2OC)C(C)=O)cc1 (centres undefined)
MDA-MB-435
  GI50: > 100 µM (inactive)
SK-OV-3
  GI50: > 100 µM (inactive)
A498
  GI50: > 100 µM (inactive)
M14
  GI50: > 100 µM (inactive)
UACC-62
  GI50: > 100 µM (inactive)
Hs-578T
  GI50: > 100 µM (inactive)
SNB-75
  GI50: > 100 µM (inactive)
SK-MEL-28
  GI50: > 100 µM (inactive)
UO-31
  GI50: > 100 µM (inactive)
NCI-H460
  GI50: > 100 µM (inactive)
NCI-H522
  GI50: > 100 µM (inactive)
SN12C
  GI50: > 100 µM (inactive)
Malme-3M
  GI50: > 100 µM (inactive)
SF-539
  GI50: > 100 µM (inactive)
SW-620
  GI50: > 100 µM (inactive)
OVCAR-5
  GI50: > 100 µM (inactive)
MOLT-4
  GI50: > 100 µM (inactive)
T47D
  GI50: > 100 µM (inactive)
MDA-N
  GI50: > 100 µM (inactive)
A549
  GI50: > 100 µM (inactive)
786-0
  GI50: > 100 µM (inactive)
COLO 205
  GI50: > 100 µM (inactive)
DU-145
  GI50: > 100 µM (inactive)
SK-MEL-5
  GI50: > 100 µM (inactive)
LOX IMVI
  GI50: > 100 µM (inactive)
HOP-92
  GI50: > 100 µM (inactive)
MCF7
  GI50: > 100 µM (inactive)
NCI-H23
  GI50: > 100 µM (inactive)
MDA-MB-231
  GI50: > 100 µM (inactive)
CCRF-CEM
  GI50: > 100 µM (inactive)
ACHN
  GI50: > 100 µM (inactive)
KM12
  GI50: > 100 µM (inactive)
HCT-15
  GI50: > 100 µM
SNB-19
  GI50: > 100 µM (inactive)
HCT-116
  GI50: > 100 µM (inactive)
OVCAR-8
  GI50: > 100 µM (inactive)
CAKI-1
  GI50: > 100 µM (inactive)
SF-268
  GI50: > 100 µM (inactive)
K562
  GI50: > 100 µM (inactive)
NCI-H226
  GI50: > 100 µM (inactive)
OVCAR-3
  GI50: > 100 µM (inactive)
RXF 393
  GI50: > 100 µM (inactive)
TK-10
  GI50: > 100 µM (inactive)
NCI/ADR-RES
  GI50: > 100 µM (inactive)
HOP-62
  GI50: > 100 µM (inactive)
SR
  GI50: > 100 µM (inactive)
OVCAR-4
  GI50: > 100 µM (inactive)
EKVX
  GI50: > 100 µM (inactive)
U-251
  GI50: > 100 µM (inactive)
HT-29
  GI50: > 100 µM (inactive)
PC-3
  GI50: > 100 µM (inactive)
SK-MEL-2
  GI50: > 100 µM (inactive)
UACC-257
  GI50: > 100 µM (inactive)
IGROV-1
  GI50: > 100 µM (inactive)
RPMI-8226
  GI50: > 100 µM (inactive)
SF-295
  GI50: > 100 µM (inactive)
